Where “and” joins values, the source holds several entries; their conditions need not be identical. Identical values can stand only once. Inconclusive results are not listed. *1 amine or outer side, *2 acyl side, *3 side chain or, on linkers, in order; H or OH if unused. Where a SMILES comes first, the peptide text is derived from it. Bridges are numbered along the chain shown (N, C = ends). Roman numbers before positions name the chains, in order. [ ]: non-standard residue; d: D form. Actinocin(1to9) = Cc1c2oc3c(C)ccc(C(=O)[*:2])c3nc-2c(C(=O)[*:1])c(N)c1=O; NMeV = CN[CH](C(=O)O)C(C)C; Sar = CNCC(=O)O
Tested on: BDF1 mice, s.c. Lewis lung carcinoma, T/C %
Assay: NCI In Vivo Anticancer Drug Screen. Data for tumor model Lewis Lung Carcinoma (subcutaneous) in B6D2F1 (BDF1) mice
Description: The antitumor activity of compounds was measured in mice bearing transplantable tumors. Survival or tumor size were measured and the results are expressed as the measurement made in the treated group (T) divided by the measurement made in the vehicle treated control group (C). The tumor model used in this assay is Lewis Lung Carcinoma (subcutaneous) in B6D2F1 (BDF1) mice

## NC(Cc1ccc(N(CCCl)CCCl)cc1)C(=O)O (stereo not given)
endpoint: mean tumor weight, dose: 1.5 mg/kg/injection, schedule: Q01DX011 (ip), vehicle: carboxymethylcellulose (CMC), higher = larger tumour
  T/C: 75 % of control
endpoint: mean tumor weight, dose: 2.5 mg/kg/injection, schedule: Q01DX011 (ip), vehicle: saline, higher = larger tumour
  T/C: 52 % of control
endpoint: mean tumor weight, dose: 3.0 mg/kg/injection, schedule: Q01DX011 (ip), vehicle: carboxymethylcellulose (CMC), higher = larger tumour
  T/C: 50 % of control
endpoint: mean tumor weight, dose: 4.5 mg/kg/injection, schedule: Q01DX011 (ip), vehicle: carboxymethylcellulose (CMC), higher = larger tumour
  T/C: 32 % of control
endpoint: mean tumor weight, dose: 5.0 mg/kg/injection, schedule: Q01DX011 (ip), vehicle: saline, higher = larger tumour
  T/C: 33 % of control
endpoint: mean tumor weight, dose: 10.0 mg/kg/injection, schedule: Q01DX011 (ip), vehicle: saline, higher = larger tumour
  T/C: 3 % of control

## Cc1ccc(N=NN(C)C)cc1
endpoint: mean tumor weight, dose: 15.0 mg/kg/injection, schedule: Q01DX011 (ip), vehicle: other, higher = larger tumour
  T/C: 67 % of control
endpoint: mean tumor weight, dose: 60.0 mg/kg/injection, schedule: Q01DX011 (ip), vehicle: other, higher = larger tumour
  T/C: 57 % of control

## CC(CN1CC(=O)NC(=O)C1)N1CC(=O)NC(=O)C1 (stereo not given)
endpoint: median survival time, dose: 0.5 mg/kg/injection, schedule: Q01DX009 (ip), vehicle: saline, higher = longer survival
  T/C: 91 % of control
endpoint: median survival time, dose: 1.0 mg/kg/injection, schedule: Q01DX009 (ip), vehicle: saline, higher = longer survival
  T/C: 109 % of control
endpoint: median survival time, dose: 1.9 mg/kg/injection, schedule: Q01DX009 (ip), vehicle: saline, higher = longer survival
  T/C: 112 % of control
endpoint: median survival time, dose: 3.75 mg/kg/injection, schedule: Q01DX009 (ip), vehicle: saline, higher = longer survival
  T/C: 106 % of control
endpoint: median survival time, dose: 7.5 mg/kg/injection, schedule: Q01DX009 (ip), vehicle: saline, higher = longer survival
  T/C: 108 % of control
endpoint: median survival time, dose: 15.0 mg/kg/injection, schedule: Q01DX009 (ip), vehicle: Klucel (hydroxypropylcellulose) (HPC), higher = longer survival
  T/C: 112 % of control
endpoint: median survival time, dose: 30.0 mg/kg/injection, schedule: Q01DX009 (ip), vehicle: Klucel (hydroxypropylcellulose) (HPC), higher = longer survival
  T/C: 86 % of control
endpoint: median survival time, dose: 60.0 mg/kg/injection, schedule: Q01DX009 (ip), vehicle: Klucel (hydroxypropylcellulose) (HPC), higher = longer survival
  T/C: 116 % of control
endpoint: median tumor weight (est.), dose: 13.0 mg/kg/injection, schedule: Q01DX011 (ip), vehicle: saline, higher = larger tumour
  T/C: 57 % of control and 74 % of control
endpoint: median tumor weight (est.), dose: 20.0 mg/kg/injection, schedule: Q01DX011 (ip), vehicle: saline, higher = larger tumour
  T/C: 58 % of control and 79 % of control
endpoint: median tumor weight (est.), dose: 30.0 mg/kg/injection, schedule: Q01DX011 (ip), vehicle: saline, higher = larger tumour
  T/C: 68 % of control

## O=NN(CCCl)C(=O)Nc1ccc(CCO)cc1
endpoint: mean tumor weight, dose: 10.0 mg/kg/injection, schedule: Q01DX001 (ip), vehicle: carboxymethylcellulose (CMC), higher = larger tumour
  T/C: 43 % of control
endpoint: mean tumor weight, dose: 20.0 mg/kg/injection, schedule: Q01DX001 (ip), vehicle: carboxymethylcellulose (CMC), higher = larger tumour
  T/C: 22 % of control

## CCC(C)C1NC(=O)C(NC(=O)c2c3nc4c(C(=O)NC5C(=O)NC(C(C)C)C(=O)N6CCCC6C(=O)N(C)CC(=O)N(C)C(C(C)C)C(=O)OC5C)ccc(C)c4oc-3c(C)c(=O)c2N)C(C)OC(=O)C(C(C)C)N(C)C(=O)CN(C)C(=O)C2CCCN2C1=O (stereo not given) (I: TIP[Sar][NMeV] / II: TVP[Sar][NMeV]; ester I:1-I:C, II:1-II:C; linker I:N-II:N via Actinocin(1to9); configuration not given here)
endpoint: median survival time, dose: 12.5 micrograms/kg/injection, schedule: Q01DX009 (ip), vehicle: water, higher = longer survival
  T/C: 111 % of control
endpoint: median survival time, dose: 25.0 micrograms/kg/injection, schedule: Q01DX009 (ip), vehicle: water, higher = longer survival
  T/C: 112 % of control
endpoint: median survival time, dose: 50.0 micrograms/kg/injection, schedule: Q01DX009 (ip), vehicle: water, higher = longer survival
  T/C: 112 % of control
endpoint: median survival time, dose: 75.0 micrograms/kg/injection, schedule: Q04DX003 (ip), vehicle: water, higher = longer survival
  T/C: 100 % of control
endpoint: median survival time, dose: 150.0 micrograms/kg/injection, schedule: Q04DX003 (ip), vehicle: water, higher = longer survival
  T/C: 108 % of control
endpoint: median survival time, dose: 300.0 micrograms/kg/injection, schedule: Q04DX003 (ip), vehicle: water, higher = longer survival
  T/C: 154 % of control

## CNCc1ccccc1
endpoint: mean tumor weight, dose: 25.0 mg/kg/injection, schedule: Q01DX011 (ip), vehicle: carboxymethylcellulose (CMC), higher = larger tumour
  T/C: 105 % of control
endpoint: mean tumor weight, dose: 50.0 mg/kg/injection, schedule: Q01DX011 (ip), vehicle: carboxymethylcellulose (CMC), higher = larger tumour
  T/C: 124 % of control
endpoint: mean tumor weight, dose: 100.0 mg/kg/injection, schedule: Q01DX011 (ip), vehicle: carboxymethylcellulose (CMC), higher = larger tumour
  T/C: 65 % of control

From PubChem BioAssay AID270 (DTP/NCI, 2004)
